From patent US11149135B2, “Application of cyclodextrins (CDS) for remediation of perfluoroalkyl substances (PFASS)” (THE FLORIDA INTERNATIONAL UNIVERSITY BOARD OF TRUSTEES, priority 2017, dated 2021)

Tests used:
Assay type in all cases: binding
[1] = 19F NMR association constants of β-CD:legacy PFAS complexes; details: for K1:1 association constant: 1:1 β-CD:PFAS complex; for K1:1 association constant / K2:1 association constant: aqueous media, room temperature; for K2:1 association constant: 2:1 β-CD:PFAS complex; for Legacy PFAS Kassoc (1:1): 1:1 (unmarked value taken as 1:1)
Experimental: A detailed comprehensive Nuclear Magnetic Resonance (NMR) spectral study of the complexation of PFASs to β-CD was conducted, Weiss-Errico and O'Shea, J. Hazardous Mat. 2017 329, 57-65, with highlights herein. […] Competition studies with adamantane-carboxylic acid and phenol confirmed the persistence of the β-CD:PFAS complex. The aqueous solution pH, ionic strength, and the presence of humic acid have only a modest influence on the β-CD:PFAS complexes. Table 2 gives the association constants for β-CD complexes with a sample of the PFASs studied, including perfluoroheptanoic acid (PFHpA), perfluorooctanoic acid (PFOA), perfluorononanoic acid (PFNA), perfluorooctane sulfonate (PFOS), and perfluorooctanesulfonamide (PFOSA).

[2] = 19F NMR titration, average association constants of PFECAs with α-CD; set-up: key: *: no significant association; details: 50% D2O/50% H2O, pH 7; averaged over individual fluorines
Experimental: (§1) ^19F NMR spectroscopy was performed with a 400 MHz Bruker instrument with a quad probe (operating at 376.498 MHz for 19F). Hexafluorobenzene was used as the internal standard with a chemical shift of −164.9 ppm. For the titration experiments, the chemical shift of each peak was recorded, and the 1:1 and 2:1 association constants were calculated in GraphPad Prism and Mathworks Matlab by Ramos Cabrer et al.'s, Langmuir 1999, 15, 5489-5495 method.
(§2) The ^19F NMR spectrum of each PFECA was monitored as a function of CD concentration. The individual CD:PFECA association constants were determined via nonlinear least-squares regression analysis of the change in observed chemical shift. The association constants determined for individual fluorines were then averaged to find the average association constant for each PFECA with each CD.

[3] = 19F NMR titration, average association constants of PFECAs with γ-CD; set-up: key: *: no significant association; details: 50% D2O/50% H2O, pH 7; averaged over individual fluorines
Experimental: as §1, §2

[4] = 19F NMR titration, average association constants of PFECAs with β-CD; details: for association constant with β-CD: 1:1 β-CD:PFECA; for Average association constant with β-CD (1:1): 1:1 β-CD:PFECA (unmarked values are 1:1); for Average association constant with β-CD (1:1) / Average association constant with β-CD (2:1): pH 7; for Decrease (1:1): decrease of 1:1 β-CD association constant versus legacy PFAS of the same chain length; for Emerging PFAS Kassoc (1:1): 1:1 (unmarked values taken as 1:1); for Average association constant with β-CD (2:1): 2:1 β-CD:PFECA
Experimental: as §1, §2

[5] = estimated based on association constants from PFOA and PFNA

Row | Compound | Average association constant with α-CD [2] | Average association constant with γ-CD [3] | Average association constant with β-CD (1:1) [4] | Decrease (1:1) [4] | Emerging PFAS Kassoc (1:1) ([4]; β-CD:PFECA) | K1:1 association constant [1] | K2:1 association constant [1] | also measured
1 | O=C(O)C(F)(F)C(F)(F)C(F)(F)C(F)(F)C(F)(F)C(F)(F)C(F)(F)C(F)(F)C(F)(F)F [PFDA, perfluorodecanoic acid] |  |  |  |  |  |  |  | Legacy PFAS Kassoc (1:1), estimated [1, 5]: ~10^5 (1:1) M^−1; Legacy PFAS Kassoc (2:1), estimated [1, 5]: ~10^3 (2:1) M^−1
2 | O=C(O)C(F)(F)C(F)(F)C(F)(F)OC(F)(C(F)(F)F)C(F)(F)F [PFDMMOBA, perfluoro(5-oxa-6-dimethylhexanoic) acid] | * | 6.85 +/− 1.82 × 10^2 M^−1 | 2.66 +/− 0.61 × 10^4 M^−1 | ~10 | 2.66 +/− 0.61 × 10^4 M^−1 |  |  | association constant with β-CD [4]: 26600 M⁻¹; stronger complexation with β-CD than PFPrOPrA ([4]; ratio of β-CD association constants, PFDMMOBA versus PFPrOPrA): ~40 ×
3 | O=C(O)C(F)(F)C(F)(F)C(F)(F)C(F)(F)C(F)(F)C(F)(F)F [PFHpA, perfluoroheptanoic acid] |  |  |  |  |  | 4.30 ± 0.85 × 10^5 M^−1 | 2.30 ± 0.27 × 10^3 M^−1 | Legacy PFAS Kassoc (1:1) ([1]; β-CD:legacy PFAS): 4.30 +/− 0.85 x 10^5 (1:1) M^−1; Legacy PFAS Kassoc (2:1) ([1]; β-CD:legacy PFAS, 2:1): 2.30 +/− 0.27 × 10^3 (2:1) M^−1
4 | O=C(O)C(F)(F)C(F)(F)OC(F)(F)F [PFMOBA, perfluoro(4-oxapentanoic) acid] | 3.37 +/− 1.40 × 10^1 M^−1 | * | 1.48 +/− 0.36 × 10^3 M^−1 | ~10 | 1.48 +/− 0.36 × 10^3 M^−1 |  |  | association constant with β-CD [4]: 1480 M⁻¹
5 | O=C(O)C(F)(F)OC(F)(F)F [PFMOPrA, Perfluoro(3-oxabutanoic) acid] | 2.60 +/− 1.14 × 10^1 M^−1 | * | 1.54 +/− 0.52 × 10^2 M^−1 | <10 | 1.54 +/− 0.52 × 10^2 M^−1 |  |  | 
6 | O=C(O)C(F)(F)C(F)(F)C(F)(F)C(F)(F)C(F)(F)C(F)(F)C(F)(F)C(F)(F)F [PFNA, perfluorononanoic acid] |  |  |  |  |  | 3.37 ± 0.35 × 10^5 M^−1 | 7.80 ± 0.66 × 10^3 M^−1 | 
7 | O=C(O)C(F)(F)OC(F)(F)C(F)(F)OC(F)(F)C(F)(F)C(F)(F)C(F)(F)F [PFO2DA, perfluoro(3,6-dioxadecanoic) acid] | * | 1.39 +/− 0.38 × 10^3 M^−1 | 1.38 +/− 0.40 × 10^4 M^−1 | ~10 | 1.38 +/− 0.40 × 10^4 (1:1) M^−1 |  |  | Average association constant with β-CD (2:1) [4]: 7.72 +/− 2.43 × 10^3 M^−1
8 | O=C(O)C(F)(F)OC(F)(F)C(F)(F)OC(F)(F)F [PFO2HpA, perfluoro(3,6-dioxheptanoic) acid] | 5.34 +/− 0.48 × 10^1 M^−1 | 8.43 +/− 3.24 × 10^1 M^−1 | 4.74 +/− 2.04 × 10^2 M^−1 | ~1000 | 4.74 +/− 2.04 × 10^2 (1:1) M^−1 |  |  | Average association constant with β-CD (2:1) [4]: 3.87 +/− 1.40 × 10^2 M^−1; Emerging PFAS Kassoc (2:1) ([4]; β-CD:PFECA, 2:1): 3.87 +/− 1.40 × 10^2 (2:1) M^−1
9 | O=S(=O)(O)C(F)(F)C(F)(F)C(F)(F)C(F)(F)C(F)(F)C(F)(F)C(F)(F)C(F)(F)F [PFOS, perfluorooctane sulfonate] |  |  |  |  |  | 6.96 ± 0.79 × 10^5 M^−1 | 5.95 ± 1.70 × 10^4 M^−1 | 
10 | NS(=O)(=O)C(F)(F)C(F)(F)C(F)(F)C(F)(F)C(F)(F)C(F)(F)C(F)(F)C(F)(F)F [PFOSA, perfluorooctanesulfonamide] |  |  |  |  |  | 1.02 ± 0.16 × 10^5 M^−1 | 2.70 ± 0.57 × 10^4 M^−1 | 
11 | O=C(O)C(F)(F)C(F)(F)C(F)(F)C(F)(F)F [PFPA, perfluoropentanoic acid] |  |  |  |  |  |  |  | Legacy PFAS Kassoc (1:1) ([1]; β-CD:legacy PFAS): 7.60 +/− 0.44 × 10^2 M^−1
